The values below come from US20260159604A1, “USES OF NON-SMALL CELL LUNG CANCER TARGET ARID1A AND INHIBITOR THEREOF IN PREPARATION OF DRUG FOR TREATING LUNG CANCER” (THE FIRST AFFILIATED HOSPITAL OF BENGBU MEDICAL COLLEGE, priority 2021, published 2026).

Test [1] has as its system KP and KPAfl/fl tumor-derived organoids. The test is described as follows: Drug sensitivity of BET inhibitors on tumor-derived organoids. To be noted: for number of organoids with increasing drug concentration: different drug concentrations. In kind it is cell-based, mouse. The method, then:
Firstly, lung tumor cells of KP and KPAfl/fl mice were taken for in vitro organoid culture and expansion, and drug sensitivity experiments of five widely used BET inhibitors were conducted on tumor-derived organoids (as shown in FIG. 7 panel A).

Test [2] has as its system ARID1A-deficient lung cancers. The test is described as follows: Intervention in glycolysis in AAV9-CMV-Cre induced KP and KPAfl/fl mouse lung cancer models. It is filed as in vivo. To be noted: KPAfl/fl mice, AAV9-CMV-Cre induction. An excerpt:
In Example 4 of the present invention, the biological mechanism of ARID1A deletion promoting lung cancer progression by increasing glycolysis levels was described. In this example, one or more strategies were used to intervene in glycolysis levels, and whether the method(s) could inhibit the progression of ARID1A-deficient lung cancers was observed. In one embodiment, the present invention used a clinical drug 2-DG to inhibit glucose metabolism levels, including glycolysis levels of tumor cells. In another embodiment, the present invention used lentivirus-mediated CRISPR/Cas9 to interfere with the expression of Pgam1 gene (pSECC-sgPgaml group), wherein the nucleotide sequences of the sgRNA were as shown in SEQ ID NO: 4 and SEQ ID NO: 5. In another embodiment, the present invention used lentivirus-mediated CRISPR/Cas9 to interfere with the expression of Pkm gene (pSECC-sgPkm group), wherein the nucleotide sequences of the […] were as shown in SEQ ID NO: 6 and SEQ ID NO: 7.
Firstly, 4-week-old KP and KPAfl/fl mouse systems were established. Secondly, AAV9-CMV-Cre virus induction was performed on mice. At the same time, lentivirus-mediated Cas9 and sgRNA were administered respectively to target a key gene Pgam1 or Pkm in glycolysis for intervention, with 2-DG drug treatment as another experimental group. […]

Test [3] concerns ARID1A-mutant ovarian cancers. Particulars: reported studies; cited from earlier work.
In test [4] the test system is ARID1A-deficient lung cancer cells. In words: Sensitivity to BETi small molecules in transgenic model mice (KP and KPAfl/fl groups). In kind it is in vivo, mouse. As for the experimental part:
Finally, the sensitivity of BETi small molecules to ARID1A-deficient cells was tested on transgenic model mice (KP and KPAfl/fl groups) (FIG. 7 panel D).

For test [5], the system named is tumors with ARID1A knockout. The test is described as follows: KP and KPAfl/fl tumor organoids xenotransplanted subcutaneously into C57 mice. It is filed as in vivo, mouse. To be noted: subcutaneous organoid xenotransplant in C57 mice, volumes measured every 3 days. The method, then:
During the experiment, tumor volumes were measured every 3 days.

As for `COc1cc2c(cc1-c1c(C)noc1C)ncc1[nH]c(=O)n([C@H](C)c3ccccn3)c12` [Bet151], the “number of organoids with increasing drug concentration” value in test [1] (7th day) was “the number of organoids decreased with the increase of drug concentration”.
As to `CC(=O)N1c2ccc(-c3ccc(C(=O)O)cc3)cc2[C@H](Nc2ccc(Cl)cc2)C[C@@H]1C` [Bet726], the “number of organoids with increasing drug concentration” value in test [1] (7th day) is “the number of organoids decreased with the increase of drug concentration”.
Turning to `O=CC[C@@H](O)[C@H](O)[C@H](O)CO` [2-DG, 2-deoxy-D-glucose], the “inhibition of tumor progression caused by the ARID1A deletion” value in test [2] is on record as “could to some extent inhibit tumor progression”.
`Cc1sc2c(c1C)C(c1ccc(Cl)cc1)=N[C@@H](CC(=O)Nc1ccc(O)cc1)c1nnc(C)n1-2` [OTX015, Birabresib]: the “number of organoids with increasing drug concentration” value in test [1] (7th day) is “the number of organoids decreased with the increase of drug concentration”.
As to `Cc1sc2c(c1C)C(c1ccc(Cl)cc1)=N[C@@H](CC(=O)OC(C)(C)C)c1nnc(C)n1-2` [JQ1], the “survival ability of ARID1A-deficient versus ARID1A wild-type tumor organoids” value in test [1] is recorded as “greater damage to the survival ability of ARID1A-deficient tumor organoids than ARID1A wild-type organoids”. Moreover, the “number of organoids with increasing drug concentration” value in test [1] (7th day) is listed as “the number of organoids decreased with the increase of drug concentration”. Further, in test [1] (concentrations of 10 μm and 50 μm, 7th day), the “formation of tumor-derived organoids, KPAfl/fl versus KP” value is recorded as “selectively impaired the formation of KPAfl/fl tumor-derived organoids”. Also, the “sensitivity of ARID1A-deficient lung adenocarcinoma cells to BETi compounds” value in test [1] (summary statement, compared with other BETi) was “more sensitive”. Also, the “inhibitory effects on ARID1A-mutant ovarian cancers” value in test [3] is “inhibitory effects on ARID1A-mutant ovarian cancers”. Moreover, the “slowing of progression of ARID1A-deficient lung cancers (FIG. 7 legend)” value in test [4] (FIG. 7 summary) is “more prominent inhibitory effect”. Also, in test [4] (transgenic KP and KPAfl/fl mice), the “sensitivity by comparing the number and area of tumors” value is “sensitive”. Also, the “sensitivity by comparing tumor volumes and weights” value in test [5] is “more sensitive”.
